# Experiments:
# human TLR8 = target: T1, human TLR8 (Homo sapiens, UniProt Q9NR97); experiment: Human TLR8-specific HEK-Blue reporter gene assay; format: cell-based; conditions: human TLR8-transfected HEK293 cells, NF-κB reporter
# T1 sequence (Q9NR97 27-1041): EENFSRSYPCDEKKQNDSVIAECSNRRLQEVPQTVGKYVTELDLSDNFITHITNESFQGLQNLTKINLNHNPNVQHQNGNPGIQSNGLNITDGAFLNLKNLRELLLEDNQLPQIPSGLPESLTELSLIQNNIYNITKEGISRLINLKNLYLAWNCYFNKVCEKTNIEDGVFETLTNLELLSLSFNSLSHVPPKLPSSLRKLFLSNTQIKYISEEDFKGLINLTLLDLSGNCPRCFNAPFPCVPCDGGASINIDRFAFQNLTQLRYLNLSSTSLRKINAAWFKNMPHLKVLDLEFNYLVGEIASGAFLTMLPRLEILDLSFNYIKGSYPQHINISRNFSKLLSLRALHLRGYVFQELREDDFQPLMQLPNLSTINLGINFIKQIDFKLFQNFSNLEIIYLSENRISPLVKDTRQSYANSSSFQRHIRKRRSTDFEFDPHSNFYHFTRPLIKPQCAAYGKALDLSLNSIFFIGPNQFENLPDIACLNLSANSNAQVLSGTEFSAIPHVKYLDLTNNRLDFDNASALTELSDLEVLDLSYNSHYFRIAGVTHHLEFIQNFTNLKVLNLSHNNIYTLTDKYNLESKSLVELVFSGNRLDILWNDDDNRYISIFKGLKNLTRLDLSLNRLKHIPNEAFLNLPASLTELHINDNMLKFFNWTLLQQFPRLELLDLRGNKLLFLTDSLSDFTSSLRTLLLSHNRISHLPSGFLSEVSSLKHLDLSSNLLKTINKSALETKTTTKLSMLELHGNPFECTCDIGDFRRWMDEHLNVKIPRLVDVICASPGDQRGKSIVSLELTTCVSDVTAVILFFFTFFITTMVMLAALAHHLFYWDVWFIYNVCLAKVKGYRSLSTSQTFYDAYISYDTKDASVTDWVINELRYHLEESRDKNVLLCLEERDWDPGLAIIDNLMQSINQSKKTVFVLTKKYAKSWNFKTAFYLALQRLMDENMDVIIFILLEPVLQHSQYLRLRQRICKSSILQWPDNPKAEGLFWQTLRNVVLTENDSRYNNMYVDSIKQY
# human PBMCs [1] = experiment: Immunoassays for cytokines in human PBMCs; format: cell-based; conditions: hPBMC stimulated 12 h with graded concentrations
# human PBMCs [2] = experiment: Transcriptomal profiling in human PBMCs; format: cell-based; conditions: human PBMC, 10 μg/mL, two hours, fold change threshold 2.0
# [3] = cited from earlier work
# NF-κB = conditions: previously observed; cited from earlier work
# [4] = previously observed; cited from earlier work
Compound,dose-response profile (area-under the-curve) remark (human TLR8),proinflammatory cytokine induction (human PBMCs [1]),other results
"CCCC(C)Nc1oc2c(C)ncc(CO)c2c1Nc1ccccn1 (stereo not drawn) [Compound 37d, (7-methyl-2-(pentan-2-ylamino)-3-(pyridin-2-ylamino)furo[2,3-c]pyridin-4-yl)methanol]",Low AUC,,
"CCCCNc1oc2c(C)ncc(CO)c2c1Nc1ccccn1 [Compound 37a, (2-(butylamino)-7-methyl-3-(pyridin-2-ylamino)furo[2,3-c]pyridin-4-yl)methanol]",,"none of the furo[2,3-c]pyridines showed any proinflammatory cytokine induction",
"Cc1ncc(CO)c2c(Nc3ccccn3)c(NCCC(=O)OC(C)(C)C)oc12 [Compound 37i, tert-butyl 3-((4-(hydroxymethyl)-7-methyl-3-(pyridin-2-ylamino)furo[2,3-c]pyridin-2-yl)amino)propanoate]",Low AUC,,
"Cc1ncc(CO)c2c(Nc3ccccn3)c(N[C@@H](C)c3ccccc3)oc12 [Compound 37m, (S)-(7-methyl-2-((1-phenylethyl)amino)-3-(pyridin-2-ylamino)furo[2,3-c]pyridin-4-yl)methanol]",Very low AUC,,
"Cc1ncc(CO)c2c(Nc3ccccn3)c(NCc3ccccc3)oc12 [Compound 28, (2-(benzylamino)-7-methyl-3-(pyridin-2-ylamino)furo[2,3-c]pyridin-4-yl)methanol]",,"none of the furo[2,3-c]pyridines showed any proinflammatory cytokine induction",
"Cc1ncc(CO)c2c(Nc3ccccc3)c(NCc3ccccc3)oc12 [Compound 36, (2-(benzylamino)-7-methyl-3-(phenylamino)furo[2,3-c]pyridin-4-yl)methanol]",Very low AUC,,
"CCCCCNc1oc2c(C)ncc(CO)c2c1Nc1ccccn1 [Compound 37b, (7-methyl-2-(pentylamino)-3-(pyridin-2-ylamino)furo[2,3-c]pyridin-4-yl)methanol]",,"none of the furo[2,3-c]pyridines showed any proinflammatory cytokine induction",chemokine ligand gene expression (human PBMCs [2]): upregulated several chemokine ligand (both CXCL and CCL) genes; transcriptional signatures of inflammation (human PBMCs [2]): no transcriptional signatures of inflammation
"Clc1ccc2c(NCCCCNc3ccnc4cc(Cl)ccc34)ccnc2c1 [Compound 41, 7-chloro-N-(4-(7-chloroquinolin-4-ylamino)butyl) quinolin-4-amine]",,,adjuvantic activity [3]: potent adjuvant; NF-κB transactivation (NF-κB): potent NF-κB transactivation; proinflammatory cytokine induction [4]: unaccompanied by any proinflammatory cytokine induction
"Cc1ncc(CO)c2c(Nc3ccccn3)c(NC[Si](C)(C)C)oc12 [Compound 37f, (7-methyl-3-(pyridin-2-ylamino)-2-(((trimethylsilyl)methyl)amino)furo[2,3-c]pyridin-4-yl)methanol]",,"none of the furo[2,3-c]pyridines showed any proinflammatory cytokine induction",chemokine ligand gene expression (human PBMCs [2]): upregulated several chemokine ligand (both CXCL and CCL) genes; transcriptional signatures of inflammation (human PBMCs [2]): no transcriptional signatures of inflammation

# The next lines start with results.
dose-response profile (area-under the-curve) remark (human TLR8),Compound,proinflammatory cytokine induction (human PBMCs [1]),other results
Low AUC,"CCCCCNc1oc2c(C)ncc(CO)c2c1Nc1cccc([N+](=O)[O-])c1 [Compound 38c, (7-methyl-3-((3-nitrophenyl)amino)-2-(pentylamino)furo[2,3-c]pyridin-4-yl)methanol]",,
Low AUC,"CCCCCNc1oc2c(C)ncc(CO)c2c1Nc1ccccc1 [Compound 38a, (7-methyl-2-(pentylamino)-3-(phenylamino)furo[2,3-c]pyridin-4-yl)methanol]",,
Low AUC,"CCCCCNc1oc2c(C)ncc(CO)c2c1Nc1cccc(F)c1 [Compound 38b, (3-((3-fluorophenyl)amino)-7-methyl-2-(pentylamino)furo[2,3-c]pyridin-4-yl) methanol]",,

# — article PMC3461104 (Journal of medicinal chemistry, 2012)
